The first experiment has as its system rhythmic bladder contractions in rats. Nature of the experiment: Inhibitory effect against rhythmic bladder contractions in rats. It counts as in vivo. Particulars: anesthetized female SD rats, intravenous, dose 0.001 mg/kg body weight. As to the method:
Inhibitory Effect Against Rhythmic Bladder Contractions in Rats
Female SD rats were anesthetized with an intraperitoneal administration of urethane (1.0 g/kg). A polyethylene tube was inserted from the urethra to the bladder and the tube was fixed by ligation. Then physiological saline was appropriately infused (infusion rate: about 0.2 ml/min., maximum: about 1.5 ml/animal) through the tube to cause rhythmic bladder contractions. The rhythmic bladder contractions were monitored by measuring the intravesical pressure through a polyethylene tube inserted into the bladder. After confirming that stable rhythmic bladder contractions occurred at least 10 times, a vehicle containing a prescribed dose of a test compound was intravenously administration at a dose of 1 ml/kg. In cases where the intravesical pressure, within 10 minutes after the administration of the test compound, decreased to 50% or less of the intravesical pressure immediately […] the administration, the test compound was judged as having inhibitory effect against urinary bladder contractions, and the time period until the intravesical pressure returned to more than 50% was defined as inhibitory time of rhythmic bladder contractions. As the vehicle for administration, physiological saline was used for test compounds 4, 7, 8, 9, 10, 13, 29, 30, 31, 33, 34, 75, 76, 79, 80, 81, 82, 84, 89, 90, 91, 93, 94, 95, 110 and 111, aqueous 10% dimethylsulfoxide (DMSO) solution was used for test compounds 11, 12, 14, 15, 16, 17, 18, 20, 21, 23, 28, 46, 47, 50, 55, 56, 57, 58, 59, 60, 61, 62, 63, 64, 65, 66, 68, 69, 70, 71, 72, 73, 74, 77, 78, 83, 85, 86, 87, 88, 92, 96, 97, 98, 99, 100, […], 103, 104, 105, 106, 107, 108 and […], aqueous 20% dimethylsulfoxide (DMSO) solution was used for test compounds 1, 2, 67 and 101, and aqueous 5% xylitol solution was used for test compounds 5 and 35. The aqueous 10% DMSO solution, aqueous 20% DMSO solution and the aqueous 5% xylitol solution per se, which may influence on the inhibitory time of rhythmic bladder contractions, were also tested at a dose of 1 ml/kg. With any of the compounds, prolongation of the inhibitory time of rhythmic bladder contractions was observed when compared with that obtained in the group to which the vehicle alone was administered.
For `O=C1c2ccc(F)cc2C(=O)N1[C@H]1CC[C@@]2(O)[C@H]3Cc4ccc(O)c5c4[C@@]2(CCN3CC2CC2)[C@H]1O5` [Compound 68, N-(17-cyclopropylmethyl-4,5α-epoxy-3,14-dihydroxymorphinan-6α-yl)-4-fluorophthalimide], the “Mean Inhibitory Time of Rhythmic Bladder Contractions” value (“Mean Inhibitory Time” below) was 18.0 min.

The experiment is the same for the next values; noted with them: anesthetized female SD rats, intravenous, dose 0.005 mg/kg body weight.
On to `C=CCN1CC[C@]23c4c5ccc(O)c4O[C@H]2[C@@H](N2C(=O)c4cccc(F)c4C2=O)CC[C@@]3(O)[C@H]1C5` [Compound 63, N-(17-allyl-4,5α-epoxy-3,14-dihydroxymorphinan-6α-yl)-3-fluorophthalimide], for which the “Mean Inhibitory Time” value was 16.1 min.

Still in this experiment, the particulars now being: anesthetized female SD rats, intravenous, dose 0.01 mg/kg body weight.
Regarding `O=C1Cc2ccccc2C(=O)N1[C@@H]1CC[C@@]2(O)[C@H]3Cc4ccc(O)c5c4[C@@]2(CCN3CC2CC2)[C@H]1O5` [Compound 106, 2-(17-cyclopropylmethyl-4,5α-epoxy-3,14-dihydroxy-morphinan-6β-yl)-4H-isoquinolin-1,3-dione], the “Mean Inhibitory Time” value amounted to 12.9 min. Still for that read-out and setting: the value for `CC1=C(C)C(=O)N([C@H]2CC[C@@]3(O)[C@H]4Cc5ccc(O)c6c5[C@@]3(CCN4CC3CC3)[C@H]2O6)C1=O` [Compound 76, N-(17-cyclopropylmethyl-4,5α-epoxy-3,14-dihydroxy-morphinan-6α-yl)-2,3-dimethyl-maleimide] was 16.7 min; that for `Cc1cccc2c1C(=O)N([C@@H]1CC[C@@]3(O)[C@H]4Cc5ccc(O)c6c5[C@@]3(CCN4CC3CC3)[C@H]1O6)C2=O` [Compound 18, N-(17-cyclopropylmethyl-4,5α-epoxy-3,14-dihydroxy-morphinan-6β-yl)-3-methylphthalimide] was 13.7 min; that for `C=CCN1CC[C@]23c4c5ccc(O)c4O[C@H]2[C@H](N2C(=O)c4cccc(F)c4C2=O)CC[C@@]3(O)[C@H]1C5` [Compound 62, N-(17-allyl-4,5α-epoxy-3,14-dihydroxymorphinan-6β-yl)-3-fluorophthalimide] was 15.3 min.

Still in this experiment, the particulars now being: anesthetized female SD rats, intravenous, dose 0.03 mg/kg body weight.
For `C=CCN1CC[C@]23c4c5ccc(O)c4O[C@H]2[C@@H](N2C(=O)C4=C(CCCC4)C2=O)CC[C@@]3(O)[C@H]1C5` [Compound 74, N-(17-allyl-4,5α-epoxy-3,14-dihydroxymorphinan-6α-yl)-3,4,5,6-tetrahydrophthalimide], the “Mean Inhibitory Time” value was found to be 24.0 min. Still for that read-out and setting: the value for `C=CCN1CC[C@]23c4c5ccc(O)c4O[C@H]2[C@H](N2C(=O)c4ccccc4C2=O)CC[C@@]3(O)[C@H]1C5` [Compound 13, N-(17-allyl-4,5α-epoxy-3,14-dihydroxy-morphinan-6β-yl)-phthalimide] was 11.7 min.

Still in this experiment, the particulars now being: anesthetized female SD rats, intravenous, dose 0.1 mg/kg body weight.
In the case of `O=C1CC(c2ccccc2)C(=O)N1[C@@H]1CC[C@@]2(O)[C@H]3Cc4ccc(O)c5c4[C@@]2(CCN3CC2CC2)[C@H]1O5` (stereo partly drawn) [Compound 71, N-(17-cyclopropylmethyl-4,5α-epoxy-3,14-dihydroxymorphinan-6β-yl)-2-phenyl-succinimide], the “Mean Inhibitory Time” value is given as 24.9 min.

For `CCCN1CC[C@]23c4c5ccc(O)c4O[C@H]2[C@H](N2C(=O)c4ccccc4C2=O)CC[C@@]3(O)[C@H]1C5` [Compound 94, N-(4,5α-epoxy-3,14-dihydroxy-17-propyl-morphinan-6β-yl)-phthalimide], the “Mean Inhibitory Time” value turned out to be 11.9 min. For the molecule `O=C1[C@H]2CC=CC[C@H]2C(=O)N1[C@@H]1CC[C@@]2(O)[C@H]3Cc4ccc(O)c5c4[C@@]2(CCN3CC2CC2)[C@H]1O5` [Compound 78, N-(17-cyclopropylmethyl-4,5α-epoxy-3,14-dihydroxy-morphinan-6β-yl)-cis-1,2,3,6-tetrahydrophthalimide], the “Mean Inhibitory Time” value came out at 13.4 min. The same measure, in the same setting: for `O=C1C2=C(CCCC2)CN1[C@@H]1CC[C@@]2(O)[C@H]3Cc4ccc(O)c5c4[C@@]2(CCN3CC2CC2)[C@H]1O5` [Compound 83, 2-(17-cyclopropylmethyl-4,5α-epoxy-3,14-dihydroxy-morphinan-6β-yl)-2,3,4,5,6,7-hexahydro-isoindol-1-one] the value was 10.6 min.

Take `C=CCN1CC[C@]23c4c5ccc(O)c4O[C@H]2[C@H](N2C(=O)c4cccc(N)c4C2=O)CC[C@@]3(O)[C@H]1C5` [Compound 100, N-(17-allyl-4,5α-epoxy-3,14-dihydroxy-morphinan-6β-yl)-3-amino-phthalimide]: the “Mean Inhibitory Time” value is 14.0 min. On the same count and under the same terms, for `C=CCN1CC[C@]23c4c5ccc(O)c4O[C@H]2[C@H](N2Cc4c(F)cccc4C2=O)CC[C@@]3(O)[C@H]1C5` [Compound 89, 2-(17-allyl-4,5α-epoxy-3,14-dihydroxy-morphinan-6β-yl)-4-fluoro-2,3-dihydro-isoindol-1-one] the value was 12.5 min; for `C=CCN1CC[C@]23c4c5ccc(O)c4O[C@H]2[C@@H](N2CC4=C(CCCC4)C2=O)CC[C@@]3(O)[C@H]1C5` [Compound 85, 2-(17-allyl-4,5α-epoxy-3,14-dihydroxy-morphinan-6α-yl)-2,3,4,5,6,7-hexahydro-isoindol-1-one], 6.9 min; for `CC(=O)O[C@@]12CC[C@@H](N3CC4=C(CCCC4)C3=O)[C@@H]3Oc4c(O)ccc5c4[C@@]31CCN(CC1CC1)[C@@H]2C5` [Compound 93, N-(14-acetoxy-17-cyclopropylmethyl-4,5α-epoxy-3-hydroxymorphinan-6β-yl)-2,3,4,5,6,7-hexahydro-isoindol-1-one], 16.0 min. `Nc1ccc2c(c1)C(=O)N([C@@H]1CC[C@@]3(O)[C@H]4Cc5ccc(O)c6c5[C@@]3(CCN4CC3CC3)[C@H]1O6)C2=O` [Compound 98, N-(17-cyclopropylmethyl-4,5α-epoxy-3,14-dihydroxy-morphinan-6β-yl)-4-amino-phthalimide]: the “Mean Inhibitory Time” value was determined as 7.2 min. Same read-out and setting: the value for `C=CCN1CC[C@]23c4c5ccc(O)c4O[C@H]2[C@H](N2C(=O)c4ccc(N)cc4C2=O)CC[C@@]3(O)[C@H]1C5` [Compound 99, N-(17-allyl-4,5α-epoxy-3,14-dihydroxy-morphinan-6β-yl)-4-amino-phthalimide] was 16.9 min; that for `C=CCN1CC[C@]23c4c5ccc(O)c4O[C@H]2[C@H](N2Cc4ccc(F)cc4C2=O)CC[C@@]3(O)[C@H]1C5` [Compound 90, 2-(17-allyl-4,5α-epoxy-3,14-dihydroxy-morphinan-6β-yl)-6-fluoro-2,3-dihydro-isoindol-1-one] was 17.6 min. For `C=CCN1CC[C@]23c4c5ccc(O)c4O[C@H]2[C@H](N2C(=O)c4ccc(C)cc4C2=O)CC[C@@]3(O)[C@H]1C5` [Compound 56, N-(17-allyl-4,5α-epoxy-3,14-dihydroxymorphinan-6β-yl)-4-methylphthalimide], the “Mean Inhibitory Time” value was determined as 13.7 min.

The experiment is the same for the next values; noted with them: anesthetized female SD rats, intravenous, dose 0.3 mg/kg body weight.
Take `CN1C(=O)CN([C@@H]2CC[C@@]3(O)[C@H]4Cc5ccc(O)c6c5[C@@]3(CCN4C)[C@H]2O6)c2ccccc21` [Compound 8, 4-(4,5α-epoxy-3,14-dihydroxy-17-methyl-morphinan-6β-yl)-1-methyl-3,4-dihydro-1H-quinoxalino-2-one]: the “Mean Inhibitory Time” value worked out at 6.8 min.

Staying with this experiment, now noted: anesthetized female SD rats, intravenous, dose 1.0 mg/kg body weight.
With `O=C1C/C(=C\C2CCCCC2)C(=O)N1[C@@H]1CC[C@@]2(O)[C@H]3Cc4ccc(O)c5c4[C@@]2(CCN3CC2CC2)[C@H]1O5` [Compound 23, N-(17-cyclopropylmethyl-4,5α-epoxy-3,14-dihydroxy-morphinan-6β-yl)-2-cyclohexylmethylidene-succinimide], the “Mean Inhibitory Time” value is reported as 32.0 min.

Staying with this experiment, now noted: anesthetized female SD rats, intravenous, dose 3.0 mg/kg body weight.
Consider `CCN(CC)C(=O)C1CCCN([C@@H]2CC[C@@]3(O)[C@H]4Cc5ccc(O)c6c5[C@@]3(CCN4C)[C@H]2O6)C1` (stereo partly drawn) [Compound 33, 1-(4,5α-epoxy-3,14-dihydroxy-17-methyl-3-morphinan-6β-yl)-piperidin-3-carboxyl diethylamide], for which the “Mean Inhibitory Time” value stood at 2.1 min. `CCN(CC)C(=O)[C@H]1CCCN1[C@@H]1CC[C@@]2(O)[C@H]3Cc4ccc(O)c5c4[C@@]2(CCN3C)[C@H]1O5` [Compound 30, 1-(4,5α-epoxy-3,14-dihydroxy-17-methyl-morphinan-6β-yl)-pyrrolidin-(2R)-carboxyl diethylamide]: the “Mean Inhibitory Time” value is reported as 2.3 min.

Source of the values: US7320984B2, “Remedies or preventives for urinary frequency or urinary incontinence and morphinan derivatives having nitrogen-containing heterocyclic group” (Toray Industries, Inc., priority 2002, dated 2008).
